Source: ChEMBL document CHEMBL4507280 (2021)

Legend:
[1] = test system: Receptor-type tyrosine-protein kinase FLT3 (Homo sapiens), P36888 [D835H]; details: Compound concentration 1000.0 nM
[2] = biological target: Casein kinase I isoform gamma-1 (Homo sapiens) (UniProt Q9HCP0); details: Compound concentration 1000.0 nM
[3] = biological target: Mitogen-activated protein kinase kinase kinase 11 (Homo sapiens) (UniProt Q16584); details: Compound concentration 1000.0 nM
[4] = biological target: Nicotinic acetylcholine receptor alpha-1/beta-1 (Homo sapiens) (UniProt P02708+P11230); test: NACH_BS_N/H Eurofins-Panlabs selectivity data (BI); type: protein-complex assay; details: Compound concentration 10.0 uM
[5] = biological target: Gamma-aminobutyric acid receptor subunit alpha-1 (Rattus norvegicus) (UniProt P62813); test: GABAA MUSCIMOL CENT Eurofins-Panlabs selectivity data (BI); details: Compound concentration 10.0 uM
Gamma-aminobutyric acid receptor subunit alpha-1 (Rattus norvegicus), sequence (P62813 whole entry): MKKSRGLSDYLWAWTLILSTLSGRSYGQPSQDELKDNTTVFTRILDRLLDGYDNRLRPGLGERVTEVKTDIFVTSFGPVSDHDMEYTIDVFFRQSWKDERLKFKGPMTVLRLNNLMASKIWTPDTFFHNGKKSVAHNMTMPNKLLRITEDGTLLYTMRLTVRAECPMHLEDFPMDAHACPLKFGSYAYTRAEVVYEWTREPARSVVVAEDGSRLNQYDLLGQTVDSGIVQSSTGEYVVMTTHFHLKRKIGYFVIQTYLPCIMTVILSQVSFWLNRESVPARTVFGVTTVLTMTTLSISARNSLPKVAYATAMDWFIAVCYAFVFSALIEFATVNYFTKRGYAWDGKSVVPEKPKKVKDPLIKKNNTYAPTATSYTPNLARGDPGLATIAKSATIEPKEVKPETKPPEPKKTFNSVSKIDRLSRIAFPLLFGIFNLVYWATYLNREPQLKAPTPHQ

[6] = biological target: D(1A) dopamine receptor (Homo sapiens) (UniProt P21728); test: D1/HU Eurofins-Panlabs selectivity data (BI); details: Compound concentration 10.0 uM
[7] = biological target: Vascular endothelial growth factor receptor 1 (Homo sapiens) (UniProt P17948); details: Compound concentration 1000.0 nM
[8] = biological target: hERG (KCNH2) potassium channel (Homo sapiens, UniProt Q12809); test: K+/HERG Eurofins-Panlabs selectivity data (BI); details: compound concentration 10 uM, read-out: % Ctrl
[9] = biological target: Alpha-2A adrenergic receptor (Homo sapiens) (UniProt P08913); test: ALPHA2A/H Eurofins-Panlabs selectivity data (BI); details: Compound concentration 10.0 uM
[10] = biological target: Serine/threonine-protein kinase Nek7 (Homo sapiens) (UniProt Q8TDX7); details: Compound concentration 1000.0 nM
[11] = biological target: Mu-type opioid receptor (Homo sapiens) (UniProt P35372); test: MU/HU Eurofins-Panlabs selectivity data (BI); details: Compound concentration 10.0 uM
[12] = biological target: Tyrosine-protein kinase JAK3 (Homo sapiens) (UniProt P52333); details: Compound concentration 1000.0 nM
[13] = biological target: Voltage-dependent L-type calcium channel subunit alpha-1C (DHP site) (Rattus norvegicus, UniProt P22002); test: CA+/DHPSI/RA Eurofins-Panlabs selectivity data (BI); details: compound concentration 10 uM, read-out: % Ctrl
[14] = biological target: Receptor-interacting serine/threonine-protein kinase 4 (Homo sapiens) (UniProt P57078); details: Compound concentration 1000.0 nM
Receptor-interacting serine/threonine-protein kinase 4 (Homo sapiens), sequence (P57078 whole entry): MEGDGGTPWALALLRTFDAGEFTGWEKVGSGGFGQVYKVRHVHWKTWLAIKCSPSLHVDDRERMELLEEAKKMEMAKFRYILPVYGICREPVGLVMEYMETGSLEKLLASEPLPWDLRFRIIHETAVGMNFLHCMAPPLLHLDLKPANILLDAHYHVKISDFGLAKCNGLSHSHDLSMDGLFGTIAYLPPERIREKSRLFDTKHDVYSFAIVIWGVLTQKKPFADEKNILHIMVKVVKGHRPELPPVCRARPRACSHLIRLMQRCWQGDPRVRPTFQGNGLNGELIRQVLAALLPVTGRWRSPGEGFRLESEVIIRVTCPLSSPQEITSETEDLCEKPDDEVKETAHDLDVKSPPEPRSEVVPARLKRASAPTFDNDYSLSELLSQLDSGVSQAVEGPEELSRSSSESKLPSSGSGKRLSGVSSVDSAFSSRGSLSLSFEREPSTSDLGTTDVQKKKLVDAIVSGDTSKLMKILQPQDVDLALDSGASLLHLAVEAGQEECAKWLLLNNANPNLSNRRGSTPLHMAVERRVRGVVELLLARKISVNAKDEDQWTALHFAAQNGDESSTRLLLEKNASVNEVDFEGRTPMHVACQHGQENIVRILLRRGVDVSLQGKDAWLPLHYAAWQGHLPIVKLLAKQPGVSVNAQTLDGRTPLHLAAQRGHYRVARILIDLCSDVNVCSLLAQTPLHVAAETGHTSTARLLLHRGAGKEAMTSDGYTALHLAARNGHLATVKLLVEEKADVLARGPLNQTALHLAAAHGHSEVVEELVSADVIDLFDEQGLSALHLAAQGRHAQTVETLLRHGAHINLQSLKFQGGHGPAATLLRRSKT

[15] = biological target: Beta-1 adrenergic receptor (Homo sapiens) (UniProt P08588); test: BETA1/HU Eurofins-Panlabs selectivity data (BI); details: Compound concentration 10.0 uM
[16] = biological target: Adenosine receptor A2a (Homo sapiens) (UniProt P29274); test: A2A/HU Eurofins-Panlabs selectivity data (BI); details: Compound concentration 10.0 uM
[17] = biological target: Mitogen-activated protein kinase 10 (Homo sapiens) (UniProt P53779); details: Compound concentration 1000.0 nM
[18] = biological target: cGMP-dependent protein kinase 2 (Homo sapiens) (UniProt Q13237); details: Compound concentration 1000.0 nM
[19] = biological target: Activated CDC42 kinase 1 (Homo sapiens) (UniProt Q07912); details: Compound concentration 1000.0 nM
[20] = biological target: Dual specificity mitogen-activated protein kinase kinase 6 (Homo sapiens) (UniProt P52564); details: Compound concentration 1000.0 nM
Dual specificity mitogen-activated protein kinase kinase 6 (Homo sapiens), sequence (P52564 whole entry): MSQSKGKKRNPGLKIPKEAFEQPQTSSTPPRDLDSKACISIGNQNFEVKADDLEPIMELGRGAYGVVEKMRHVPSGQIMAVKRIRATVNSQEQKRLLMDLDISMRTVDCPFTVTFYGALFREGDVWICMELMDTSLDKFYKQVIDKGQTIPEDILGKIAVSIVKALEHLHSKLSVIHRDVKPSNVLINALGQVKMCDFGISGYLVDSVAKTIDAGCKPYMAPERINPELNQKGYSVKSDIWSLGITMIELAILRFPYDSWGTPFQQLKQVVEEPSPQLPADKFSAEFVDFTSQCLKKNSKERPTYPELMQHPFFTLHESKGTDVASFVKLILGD

[21] = biological target: Gamma-aminobutyric acid receptor subunit alpha-1 (Rattus norvegicus) (UniProt P62813); test: GABAACENTR Eurofins-Panlabs selectivity data (BI); details: Compound concentration 10.0 uM
[22] = biological target: Ephrin type-A receptor 7 (Homo sapiens) (UniProt Q15375); details: Compound concentration 1000.0 nM
Ephrin type-A receptor 7 (Homo sapiens), sequence (Q15375 28-998 limits assumed): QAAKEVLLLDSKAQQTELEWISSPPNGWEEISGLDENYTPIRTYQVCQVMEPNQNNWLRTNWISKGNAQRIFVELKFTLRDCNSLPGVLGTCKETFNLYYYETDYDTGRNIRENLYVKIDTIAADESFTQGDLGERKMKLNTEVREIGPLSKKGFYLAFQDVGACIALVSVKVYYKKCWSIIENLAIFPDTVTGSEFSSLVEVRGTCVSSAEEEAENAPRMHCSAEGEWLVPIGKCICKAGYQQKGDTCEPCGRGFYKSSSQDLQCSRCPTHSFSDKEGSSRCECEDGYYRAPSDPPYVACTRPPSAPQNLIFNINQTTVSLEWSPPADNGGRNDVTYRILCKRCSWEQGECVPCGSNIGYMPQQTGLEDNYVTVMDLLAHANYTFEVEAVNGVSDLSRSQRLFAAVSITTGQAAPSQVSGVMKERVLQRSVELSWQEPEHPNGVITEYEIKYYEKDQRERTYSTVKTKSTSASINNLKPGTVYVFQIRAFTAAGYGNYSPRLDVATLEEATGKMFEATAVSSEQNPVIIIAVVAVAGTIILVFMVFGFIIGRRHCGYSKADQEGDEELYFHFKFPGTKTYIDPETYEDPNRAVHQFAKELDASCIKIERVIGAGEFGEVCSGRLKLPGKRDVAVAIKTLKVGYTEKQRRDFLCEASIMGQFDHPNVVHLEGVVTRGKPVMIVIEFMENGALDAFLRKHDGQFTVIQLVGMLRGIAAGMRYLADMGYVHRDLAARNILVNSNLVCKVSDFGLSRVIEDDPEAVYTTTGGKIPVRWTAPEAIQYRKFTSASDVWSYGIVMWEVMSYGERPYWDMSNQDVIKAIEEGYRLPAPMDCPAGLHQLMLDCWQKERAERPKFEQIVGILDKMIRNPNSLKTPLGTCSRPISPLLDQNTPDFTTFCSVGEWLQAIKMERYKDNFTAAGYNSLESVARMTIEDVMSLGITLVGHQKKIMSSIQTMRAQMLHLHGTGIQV

[23] = biological target: ATP-sensitive inward rectifier potassium channel 1 isoform X1 (Mesocricetus auratus) (UniProt A0A1U8CU73); test: K+/KATP/HA Eurofins-Panlabs selectivity data (BI); details: Compound concentration 10.0 uM
[24] = biological target: Myosin light chain kinase, smooth muscle (Homo sapiens) (UniProt Q15746); details: Compound concentration 1000.0 nM
[25] = biological target: Serine/threonine-protein kinase 16 (Homo sapiens) (UniProt O75716); details: Compound concentration 1000.0 nM
Serine/threonine-protein kinase 16 (Homo sapiens), sequence (O75716 whole entry): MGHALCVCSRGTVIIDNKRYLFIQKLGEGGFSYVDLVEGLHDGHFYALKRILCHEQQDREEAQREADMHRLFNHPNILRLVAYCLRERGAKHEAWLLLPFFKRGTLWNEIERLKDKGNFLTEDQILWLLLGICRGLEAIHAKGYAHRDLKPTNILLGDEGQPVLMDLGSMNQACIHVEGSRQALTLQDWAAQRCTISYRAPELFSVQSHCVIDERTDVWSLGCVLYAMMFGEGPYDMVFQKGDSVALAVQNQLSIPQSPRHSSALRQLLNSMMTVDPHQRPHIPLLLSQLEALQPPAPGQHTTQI

[26] = biological target: 5-hydroxytryptamine receptor 5A (Homo sapiens) (UniProt P47898); details: Compound concentration 10.0 uM
5-hydroxytryptamine receptor 5A (Homo sapiens), sequence (P47898 whole entry): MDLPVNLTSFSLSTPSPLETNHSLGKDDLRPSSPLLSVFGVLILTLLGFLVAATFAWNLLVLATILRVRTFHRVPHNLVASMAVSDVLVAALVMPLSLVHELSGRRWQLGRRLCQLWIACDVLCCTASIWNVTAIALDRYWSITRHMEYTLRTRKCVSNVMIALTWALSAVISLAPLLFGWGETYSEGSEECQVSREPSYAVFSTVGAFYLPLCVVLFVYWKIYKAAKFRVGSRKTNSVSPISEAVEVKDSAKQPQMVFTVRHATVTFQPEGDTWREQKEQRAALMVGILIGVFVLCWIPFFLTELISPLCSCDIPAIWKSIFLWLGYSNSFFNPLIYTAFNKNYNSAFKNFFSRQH

[27] = biological target: T1, Alpha-1A adrenergic receptor (Homo sapiens) (UniProt P35348); test: ALPHA1A/R Eurofins-Panlabs selectivity data (BI); details: Rattus norvegicus; Compound concentration 10.0 uM
T1 sequence (whole entry): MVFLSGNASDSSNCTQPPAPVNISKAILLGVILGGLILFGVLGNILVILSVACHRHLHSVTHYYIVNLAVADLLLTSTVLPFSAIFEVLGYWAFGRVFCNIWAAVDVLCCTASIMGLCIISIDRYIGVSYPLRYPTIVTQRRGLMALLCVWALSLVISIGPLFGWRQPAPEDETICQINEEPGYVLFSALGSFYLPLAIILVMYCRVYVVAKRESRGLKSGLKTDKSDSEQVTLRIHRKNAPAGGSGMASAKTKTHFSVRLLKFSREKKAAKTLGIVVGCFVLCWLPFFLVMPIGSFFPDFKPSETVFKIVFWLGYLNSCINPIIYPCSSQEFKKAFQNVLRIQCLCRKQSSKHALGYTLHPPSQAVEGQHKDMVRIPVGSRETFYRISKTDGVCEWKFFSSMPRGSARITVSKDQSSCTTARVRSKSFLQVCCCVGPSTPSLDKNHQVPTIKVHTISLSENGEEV

[28] = biological target: Citron Rho-interacting kinase (Homo sapiens) (UniProt O14578); details: Compound concentration 1000.0 nM
[29] = biological target: 5-hydroxytryptamine receptor 7 (Homo sapiens) (UniProt P34969); details: Compound concentration 10.0 uM
[30] = biological target: Protein kinase C theta type (Homo sapiens) (UniProt Q04759); details: Compound concentration 1000.0 nM
Protein kinase C theta type (Homo sapiens), sequence (Q04759 whole entry, looked up): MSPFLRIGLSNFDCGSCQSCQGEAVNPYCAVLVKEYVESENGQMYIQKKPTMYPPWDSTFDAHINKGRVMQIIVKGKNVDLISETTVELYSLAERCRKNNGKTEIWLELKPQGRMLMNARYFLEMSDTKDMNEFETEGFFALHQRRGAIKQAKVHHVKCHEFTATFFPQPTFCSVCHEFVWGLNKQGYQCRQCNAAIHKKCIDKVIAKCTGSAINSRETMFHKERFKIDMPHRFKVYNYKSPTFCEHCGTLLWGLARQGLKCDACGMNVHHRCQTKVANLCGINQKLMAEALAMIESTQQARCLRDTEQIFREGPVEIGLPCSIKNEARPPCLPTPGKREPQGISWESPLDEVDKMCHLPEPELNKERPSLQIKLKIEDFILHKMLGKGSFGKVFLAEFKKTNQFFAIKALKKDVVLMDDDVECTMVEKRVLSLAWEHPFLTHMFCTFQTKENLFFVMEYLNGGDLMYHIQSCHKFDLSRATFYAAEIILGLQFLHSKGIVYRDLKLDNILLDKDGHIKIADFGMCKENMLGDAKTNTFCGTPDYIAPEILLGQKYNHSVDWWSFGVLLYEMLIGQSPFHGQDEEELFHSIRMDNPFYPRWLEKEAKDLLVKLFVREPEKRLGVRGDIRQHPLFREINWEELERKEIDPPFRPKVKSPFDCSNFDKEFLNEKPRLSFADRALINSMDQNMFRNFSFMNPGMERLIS

[31] = test system: Epidermal growth factor receptor (Homo sapiens), P00533 [G719C]; details: Compound concentration 1000.0 nM
[32] = test system: Epidermal growth factor receptor (Homo sapiens), P00533 [UNDEFINED MUTATION]; details: Compound concentration 1000.0 nM
[33] = biological target: Histamine H1 receptor (Homo sapiens) (UniProt P35367); test: H1/H Eurofins-Panlabs selectivity data (BI); details: Compound concentration 10.0 uM
[34] = biological target: Serine/threonine-protein kinase BRSK1 (Homo sapiens) (UniProt Q8TDC3); details: Compound concentration 1000.0 nM
[35] = test system: Tyrosine-protein kinase ABL1 (Homo sapiens), P00519 [F317I]; details: Compound concentration 1000.0 nM
[36] = test system: Tyrosine-protein kinase ABL1 (Homo sapiens), P00519 [Y253F]; details: Compound concentration 1000.0 nM
[37] = biological target: Delta-type opioid receptor (Homo sapiens) (UniProt P41143); details: Compound concentration 10.0 uM
[38] = biological target: Fatty acid synthase (Homo sapiens, UniProt P49327); test: Human FAS enzyme assay
[39] = biological target: Uncharacterized serine/threonine-protein kinase SBK3 (Homo sapiens) (UniProt P0C264); details: Compound concentration 1000.0 nM

Mitogen-activated protein kinase kinase kinase 11 (Homo sapiens), sequence (Q16584 whole entry, looked up): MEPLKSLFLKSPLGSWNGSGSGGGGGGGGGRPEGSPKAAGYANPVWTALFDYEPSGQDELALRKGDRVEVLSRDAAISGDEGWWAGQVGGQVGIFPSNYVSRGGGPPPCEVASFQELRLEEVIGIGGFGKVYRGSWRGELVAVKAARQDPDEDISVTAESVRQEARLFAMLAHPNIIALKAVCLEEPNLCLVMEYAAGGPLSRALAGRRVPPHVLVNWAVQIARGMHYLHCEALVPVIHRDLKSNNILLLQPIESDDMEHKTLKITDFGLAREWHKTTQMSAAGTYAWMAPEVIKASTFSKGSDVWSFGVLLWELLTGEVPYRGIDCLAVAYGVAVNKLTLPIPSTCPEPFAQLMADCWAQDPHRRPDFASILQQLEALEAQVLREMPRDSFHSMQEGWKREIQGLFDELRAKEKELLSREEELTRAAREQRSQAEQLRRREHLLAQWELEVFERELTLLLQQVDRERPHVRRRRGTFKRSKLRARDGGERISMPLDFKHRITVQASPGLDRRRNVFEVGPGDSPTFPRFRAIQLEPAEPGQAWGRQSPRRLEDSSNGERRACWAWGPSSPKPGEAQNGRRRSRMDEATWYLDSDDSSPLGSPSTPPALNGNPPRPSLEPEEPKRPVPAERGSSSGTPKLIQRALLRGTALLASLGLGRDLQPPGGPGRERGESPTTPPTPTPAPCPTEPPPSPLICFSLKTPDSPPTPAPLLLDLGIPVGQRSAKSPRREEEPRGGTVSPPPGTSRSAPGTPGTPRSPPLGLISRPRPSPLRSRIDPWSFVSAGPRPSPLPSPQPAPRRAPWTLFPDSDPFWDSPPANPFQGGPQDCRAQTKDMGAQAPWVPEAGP

CCC(=O)N[C@H]1CC[C@@H](C(=O)N(C)c2ccc(-c3nc4ccccc4o3)cc2)C1 [BI 99179]
residual activity [1]: 95%
residual activity [2]: 90%
residual activity [3]: 93%
residual activity [4]: 91%
residual activity [5]: 96%
residual activity [6]: 93%
residual activity [7]: 98%
activity at 10 µM [8]: 105% (not active)
residual activity [9]: 98%
residual activity [10]: 98%
residual activity [11]: 100%
residual activity [12]: 100%
activity at 10 µM [13]: 93% (not active)
residual activity [14]: 50%
residual activity [15]: 96%
residual activity [16]: 90%
residual activity [17]: 85%
residual activity [18]: 100%
residual activity [19]: 84%
residual activity [20]: 100%
residual activity [21]: 92%
residual activity [22]: 97%
residual activity [23]: 88%
residual activity [24]: 69%
residual activity [25]: 100%
inhibition [26]: -1.85%
residual activity [27]: 83%
residual activity [28]: 99%
inhibition [29]: -6.53%
residual activity [30]: 84%
residual activity [31]: 100%
residual activity [32]: 100%
residual activity [33]: 87%

CCC(=O)N[C@@H]1CC[C@H](C(=O)N(C)c2ccc(-c3nc4ccccc4o3)cc2)C1 [BI 99990]
residual activity [1]: 100%
residual activity [2]: 100%
residual activity [34]: 100%
residual activity [3]: 100%
residual activity [35]: 87%
residual activity [7]: 100%
residual activity [10]: 100%
residual activity [12]: 98%
residual activity [14]: 72%
residual activity [17]: 100%
residual activity [18]: 92%
residual activity [19]: 100%
residual activity [20]: 100%
residual activity [36]: 95%
residual activity [22]: 100%
residual activity [24]: 62%
residual activity [25]: 100%
inhibition [26]: -3.5%
inhibition [37]: -0.0188%
residual activity [28]: 93%
IC50 [38]: > 3 µM (not active)
residual activity [30]: 76%
residual activity [31]: 100%
residual activity [32]: 100%
residual activity [39]: 88%
